According to paper PMC11845477, “Exploring the principles behind antibiotics with limited resistance” (Nature Communications, 2025):
Several values for one entry are separate records, joined by “and”; a condition that tells them apart may be missing. Identical values can stand only once. Like-named read-outs stand apart in the source and are kept apart here. Where a SMILES comes first, the peptide text is derived from it. Bridges are numbered along the chain shown (N, C = ends). [ ]: non-standard residue; d: D form. The star is where a group is joined. X1 = NC[C@@H](CC(=O)*)c1cccc(Cl)c1; X2 = CC[C@H](C)CCCCC(=O)*; Dab = NCC[C@H](N)C(=O)O; Dap = NC[C@H](N)C(=O)O

Tested on: K. pneumoniae
Assay type: cell-based, Klebsiella pneumoniae
Protocol: We employed image analysis to quantify bacterial survival under fixed antibiotic concentrations (10xMIC for 4 hours) on E. coli, A. baumannii, K. pneumoniae, and P. aeruginosa. […] Survival rate was quantified by calculating the ratio of the viable cells after antibiotic treatment and the total initial viable cell count.
Fig. 9 Killing kinetics of the studied antibiotics. a Bacterial survival rate in response to toxic antibiotic exposure. […] The bars indicate the survival rate (log10) compared to the untreated initial viable cell count (see “Methods”). Data are presented as mean values of 5 biological replicates ± SEM. The antibiotic group differentiation is denoted by color. […] Survival was estimated by measuring cell viability (colony-forming units/ml) of 2 biologically independent strains following a 4-hour exposure to different concentrations of 16 antibiotics on E. coli ATCC25922 (for further details, see “Methods”). The antibiotic concentration that kills 99.9% of the E. coli population is indicated as a vertical dotted line (see Supplementary Data 5). Error bars represent standard error calculated from the colony counts by Poisson’s model. A Hill function was fitted to the dose-response data from two biological replicates, producing sigmoidal curves (Supplementary Data 5). The Hill coefficient reflects how steeply the survival rate decreases in response to increasing antibiotic concentration ([…]). […] X-axis label colors indicate mode of action groups. For detailed information on antibiotic and bacterial species, see Supplementary Data 1. Source data are provided as a Source Data file.
In this current study, the killing kinetics of each antibiotic was measured according to a previously established experimental protocol[62] with minor modifications. During this assay, the bacterial cultures were exposed to antibiotics in 96-well assay plates and their viability after 4 hours of exposure was quantified by two methods: i) microplating and colony counting or ii) fluorescent staining of cells and counting of the fluorescent units.
Specifically, these experiments were performed in the following steps: (1) Preparation of bacterial stocks. Single colonies from each strain were isolated and grown overnight in MHB medium at 37 °C, 160 rpm. In case of the fluorescently tagged E. coli strains, the medium was supplemented with 10 μg/mL chloramphenicol, to maintain the pZS2R plasmid. Overnight cultures were diluted 1:5000 and grown to an optical density at 600 nm (OD600) of 0.25. These cultures were concentrated by centrifugation and small aliquots of 50 μL containing ~2.2 × 10^9 cells were frozen in glycerol (stored at −80 °C). (2) Preparing assay plates with antibiotics. 96-well plates were filled with 235 μL MHB and supplemented with antibiotics using an automated digital dispenser (D300e, Tecan). In the case of SCH79797, we used minimal media. […] For testing the clearance efficacy of each antibiotic at a single lethal dose, the 10x of the MIC for each antibiotic-strain pair were prepared in at least three replicates. (3) Antibiotic exposure. During the dose response assay, frozen cultures of the E. coli strains expressing YFP and mCherry were thawed and mixed at a 1:1 ratio, diluted 1:1000 in 30 mL MHB and incubated for 45 min at 37 °C and 160 rpm. During the single-dose assay, the frozen cultures of experimental strains (E. coli, K. pneumoniae, A. baumannii) were also thawed and diluted 1:1000 in 30 mL MHB and incubated at 37 °C to reach an OD of 0.25 and 160 rpm. Following this incubation phase, these bacterial cultures were then aliquoted into the 96-well deep-well antibiotic plates (15 μL culture; total volume of 250 μL) at an inoculum density of about 10^7 CFU.

[1] = Klebsiella pneumoniae, survival at 10xMIC for 4 hours, single replicates, (fig 9a source data)

## Tridecaptin M152-P3
Klebsiella pneumoniae, survival at 10xMIC for 4 hours, single replicates, (fig 9a source data), listed as TRD
  Survival rate (log10): -2.838 log10 and -3.629 log10 and -3.392 log10 and -4.671 log10

## CNC(C)C1CCC(N)C(OC2C(N)CC(N)C(OC3OCC(C)(O)C(NC)C3O)C2O)O1 (stereo not shown) [Gentamicin]
Klebsiella pneumoniae, survival at 10xMIC for 4 hours, single replicates, (fig 9a source data), listed as GEN
  Survival rate (log10): -0.9685 log10 and -0.989 log10 and -1.08 log10 and -0.8281 log10 and -1.091 log10

## CC(C)c1ccc(Cn2ccc3c4c(N)nc(NC5CC5)nc4ccc32)cc1 [SCH79797]
10xMIC for 4 hours
  bacterial survival after toxic antibiotic exposure: eliminated the entire bacterial population
[1]
  Survival rate (log10): -6 log10

## colistin
Klebsiella pneumoniae, survival at 10xMIC for 4 hours, single replicates, (fig 9a source data), listed as COL
  Survival rate (log10): -3.893 log10 and -3.973 log10 and -4.193 log10 and -4.37 log10

## Nc1nc(-n2cc(C(=O)O)c(=O)c3cc(F)c(N4CC(O)C4)c(Cl)c32)c(F)cc1F [Delafloxacin]
Klebsiella pneumoniae, survival at 10xMIC for 4 hours, single replicates, (fig 9a source data), listed as DEL
  Survival rate (log10): -0.7389 log10 and -0.7966 log10 and -0.7399 log10 and -1.048 log10 and -0.8397 log10

## CN[C@@H]1[C@@H](O[C@H]2O[C@H](CO)[C@@H](N)[C@H](O)[C@H]2O)OC2C[C@@H](N)[C@@H](O[C@H]3[C@H](O)[C@@H](O)[C@H](N)C[C@@H]3N)OC2[C@@H]1O (stereo partly shown) [Apramycin]
Klebsiella pneumoniae, survival at 10xMIC for 4 hours, single replicates, (fig 9a source data), listed as APR
  Survival rate (log10): -1.19 log10 and -1.1 log10 and -1.062 log10 and -0.9595 log10 and -0.945 log10

## POL7306
  Survival rate (log10): -3.973 log10 and -4.193 log10
[1]
  Survival rate (log10): -4.671 log10

## CN(C)[C@@H]1C(O)=C(C(N)=O)C(=O)[C@@]2(O)C(O)=C3C(=O)c4c(O)c(NC(=O)CN5CCCC5)cc(F)c4C[C@H]3C[C@@H]12 [Eravacycline]
Klebsiella pneumoniae, survival at 10xMIC for 4 hours, single replicates, (fig 9a source data), listed as ERA
  Survival rate (log10): -0.6401 log10 and -0.9022 log10 and -0.9087 log10 and -0.8384 log10 and -0.7454 log10

## CC[C@H](C)CCCCC(=O)N[C@@H](CCN)C(=O)N[C@H](C(=O)N[C@@H](CCN)C(=O)N[C@H]1CCNC(=O)[C@H]([C@@H](C)O)NC(=O)[C@H](CCN)NC(=O)[C@H](CCN)NC(=O)[C@H](CC(C)C)NC(=O)[C@@H](Cc2ccccc2)NC(=O)[C@H](CCN)NC1=O)[C@@H](C)O [Polymyxin B] (X2-[Dab]T[Dab][Dab][Dab][dF]L[Dab][Dab]T; lactam 4-C (inferred); N-terminus assumed)
Klebsiella pneumoniae, survival at 10xMIC for 4 hours, single replicates, (fig 9a source data), listed as PMB
  Survival rate (log10): -3.309 log10 and -3.392 log10 and -3.139 log10 and -2.914 log10 and -3.825 log10

## CC(C)C[C@@H]1NC(=O)[C@@H](Cc2ccccc2)NC(=O)[C@H](CCN)NC(=O)[C@@H](NC(=O)[C@H](CN)NC(=O)[C@@H](NC(=O)C[C@H](CN)c2cccc(Cl)c2)[C@@H](C)O)CCNC(=O)[C@H]([C@@H](C)O)NC(=O)[C@H](CCN)NC(=O)[C@H](CCN)NC1=O [SPR206] (X1-T[Dap][Dab][Dab][dF]L[Dab][Dab]T; lactam 3-C (inferred); N-terminus assumed)
Klebsiella pneumoniae, survival at 10xMIC for 4 hours, single replicates, (fig 9a source data), listed as SPR
  Survival rate (log10): -4.671 log10 and -4.37 log10 and -3.671 log10

## C[C@@H](O)[C@H]1C(=O)N2C(C(=O)O)=C(S[C@H]3CC[S@@+]([O-])C3)S[C@H]12 [Sulopenem]
Klebsiella pneumoniae, survival at 10xMIC for 4 hours, single replicates, (fig 9a source data), listed as SUO
  Survival rate (log10): -0.7658 log10 and -1.06 log10 and -0.9043 log10 and -0.6919 log10 and -1.504 log10
